Results published in patent US20090238808A1, “Process for the identification of novel enzyme interacting compounds” (priority 2005, published 2009).

Legend:
Assay in all cases: Kinobeads elution with test compound, mouse brain lysate, MS
Type in all cases: binding
Settings in all cases: kinase released from kinobeads by specific elution
CaMK2g = CaMK2g (Mus musculus, UniProt Q923T9)
Text: (§1) This example illustrates competitive elution of proteins bound to kinobeads with non-modified test compounds (see particularly the fourth aspect of the invention).
(§2) The kinobeads were contacted with mouse brain lysate under conditions that allow the binding of the proteins in the lysate to the ligands. The binding conditions were close to physiological by choosing suitable buffer conditions preserving the function of the proteins. After removing non-captured proteins through a gentle washing procedure the bound proteins were contacted with a test compound for protein elution.
(§3) Various test compounds (see section 2.7) were used to release bound proteins following these steps:
(§4) 1. Resuspend beads with bound proteins (section 2.4) in 1×DP buffer/0.2% NP-40 as 1:3 slurry (volume/volume). 2. Transfer 20 μl the 1:3 slurry into MoBiTech columns (equivalent to 5 μl of beads). 3. Place the column into an Eppendorf tube and centrifuge it for 15 seconds at 800 rpm at 4° C. Close columns with lower lid. 4. Add 10 μl elution buffer containing 1.0 mM of the test compound (concentration ranges of 0.1 to 1.0 mM are suitable). As a control use elution buffer containing 2% DMSO or 2% DMF dependent on the solvent used for dissolving the test compound. Close column with upper lid. 5. Incubate for 30 minutes at 4° C. in an Eppendorf incubator at 700 rpm. 6. […] To harvest the eluate centrifuge 2 minutes at 2.000 rpm in table top centrifuge at room temperature. The typical volume of the eluate is approximately 15 μl. 7. Add 5 μl 4× NuPAGE SDS Sample Buffer (Invitrogen, NP0007) containing 100 mM DTT (DTT has to be added just prior to use). 8. Incubate for 30 minutes at 50° C. 9. Add 1/10 volume of 200 mg/ml iodoacetamide, incubate for 30 min at room temperature, protect from light. This reaction leads to the alkylation of cysteines for mass spectrometry. 10. Before loading samples onto the gel, centrifuge samples for 5 minutes at 15.000 rpm in order to remove precipitates. 11. […] 2.6 Preparation of Stock Solutions used in this Protocol
(§5) Search criteria varied depending on which mass spectrometer was used for the analysis.

GSK3B = biological target: T1, GSK3B (Mus musculus, UniProt Q9WV60)
T1 construct: from tissue; host or cells: mouse brain
Text: as §1, §2, §3, §4, §5

CaMKK2 = CaMKK2 (Mus musculus, UniProt Q8C078)
Method in brief: (§6)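 Read-out is mass-spectrometric identification of proteins released from kinobeads by non-modified test compound. Beads had captured mouse brain lysate proteins under near-physiological conditions; after washing, elution used 1.0 mM compound for 30 min at 4° C against a 2% DMSO or DMF control.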

FER = FER (Mus musculus, UniProt P70451)
Method in brief: as §6

Erk2 = biological target: T2, Erk2 (Mus musculus, UniProt P63085)
T2 construct: […]; from tissue; host or cells: mouse brain
Method in brief: as §6

FYN = biological target: T3, FYN (Mus musculus, UniProt P39688)
T3 construct: […]; from tissue; host or cells: mouse brain
Method in brief: as §6

Sequence of FER (P70451 whole entry): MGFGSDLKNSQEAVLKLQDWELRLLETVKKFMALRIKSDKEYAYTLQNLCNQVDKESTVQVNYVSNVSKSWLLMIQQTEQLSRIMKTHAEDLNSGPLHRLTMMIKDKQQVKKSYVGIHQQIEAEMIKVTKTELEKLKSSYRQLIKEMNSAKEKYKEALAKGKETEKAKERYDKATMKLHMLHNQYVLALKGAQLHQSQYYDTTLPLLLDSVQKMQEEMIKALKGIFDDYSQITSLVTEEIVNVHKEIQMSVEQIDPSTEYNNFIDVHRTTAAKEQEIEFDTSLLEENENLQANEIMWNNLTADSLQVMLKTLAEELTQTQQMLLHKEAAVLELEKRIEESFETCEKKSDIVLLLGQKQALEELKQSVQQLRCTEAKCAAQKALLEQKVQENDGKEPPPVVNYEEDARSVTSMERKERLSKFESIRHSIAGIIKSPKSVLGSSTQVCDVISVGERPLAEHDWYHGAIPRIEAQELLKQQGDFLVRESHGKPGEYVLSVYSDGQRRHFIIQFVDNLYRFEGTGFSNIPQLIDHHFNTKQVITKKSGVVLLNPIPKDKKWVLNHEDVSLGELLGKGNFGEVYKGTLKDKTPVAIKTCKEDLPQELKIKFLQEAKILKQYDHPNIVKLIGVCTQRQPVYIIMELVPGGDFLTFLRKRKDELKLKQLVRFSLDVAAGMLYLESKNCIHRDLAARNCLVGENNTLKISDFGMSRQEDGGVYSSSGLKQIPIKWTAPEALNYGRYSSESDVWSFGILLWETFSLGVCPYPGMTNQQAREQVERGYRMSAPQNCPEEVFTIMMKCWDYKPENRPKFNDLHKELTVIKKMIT
T3 sequence (P39688 whole entry): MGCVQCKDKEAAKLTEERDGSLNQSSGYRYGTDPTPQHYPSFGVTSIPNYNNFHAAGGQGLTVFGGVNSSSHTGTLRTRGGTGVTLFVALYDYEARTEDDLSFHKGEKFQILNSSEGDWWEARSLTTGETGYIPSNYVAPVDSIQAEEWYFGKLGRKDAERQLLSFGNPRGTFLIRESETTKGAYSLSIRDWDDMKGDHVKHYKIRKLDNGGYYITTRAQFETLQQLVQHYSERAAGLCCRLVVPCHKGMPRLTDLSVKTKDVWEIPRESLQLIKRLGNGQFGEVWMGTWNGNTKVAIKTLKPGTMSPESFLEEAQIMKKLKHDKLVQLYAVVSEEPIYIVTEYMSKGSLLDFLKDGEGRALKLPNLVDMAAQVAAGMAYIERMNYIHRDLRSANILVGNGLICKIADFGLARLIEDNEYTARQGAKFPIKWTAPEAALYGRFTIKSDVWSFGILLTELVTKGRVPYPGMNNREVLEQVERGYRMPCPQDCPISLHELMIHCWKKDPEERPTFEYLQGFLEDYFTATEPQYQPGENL
Sequence of CaMKK2 (Q8C078 whole entry): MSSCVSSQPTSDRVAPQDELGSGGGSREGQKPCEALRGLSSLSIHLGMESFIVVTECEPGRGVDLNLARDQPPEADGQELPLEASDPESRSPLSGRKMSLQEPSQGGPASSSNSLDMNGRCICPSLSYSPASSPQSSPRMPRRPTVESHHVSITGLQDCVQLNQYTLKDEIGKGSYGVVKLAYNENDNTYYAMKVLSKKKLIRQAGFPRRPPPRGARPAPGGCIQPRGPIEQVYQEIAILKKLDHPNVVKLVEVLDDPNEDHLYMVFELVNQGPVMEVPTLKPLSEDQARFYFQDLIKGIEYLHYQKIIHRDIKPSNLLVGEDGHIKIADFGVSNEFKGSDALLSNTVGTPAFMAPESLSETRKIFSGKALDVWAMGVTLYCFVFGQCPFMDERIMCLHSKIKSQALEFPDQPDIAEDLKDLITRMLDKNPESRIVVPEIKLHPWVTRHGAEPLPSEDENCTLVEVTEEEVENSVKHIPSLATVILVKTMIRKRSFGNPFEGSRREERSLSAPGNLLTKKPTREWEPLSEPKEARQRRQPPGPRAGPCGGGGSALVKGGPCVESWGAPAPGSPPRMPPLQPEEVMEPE
Sequence of CaMK2g (Q923T9 whole entry): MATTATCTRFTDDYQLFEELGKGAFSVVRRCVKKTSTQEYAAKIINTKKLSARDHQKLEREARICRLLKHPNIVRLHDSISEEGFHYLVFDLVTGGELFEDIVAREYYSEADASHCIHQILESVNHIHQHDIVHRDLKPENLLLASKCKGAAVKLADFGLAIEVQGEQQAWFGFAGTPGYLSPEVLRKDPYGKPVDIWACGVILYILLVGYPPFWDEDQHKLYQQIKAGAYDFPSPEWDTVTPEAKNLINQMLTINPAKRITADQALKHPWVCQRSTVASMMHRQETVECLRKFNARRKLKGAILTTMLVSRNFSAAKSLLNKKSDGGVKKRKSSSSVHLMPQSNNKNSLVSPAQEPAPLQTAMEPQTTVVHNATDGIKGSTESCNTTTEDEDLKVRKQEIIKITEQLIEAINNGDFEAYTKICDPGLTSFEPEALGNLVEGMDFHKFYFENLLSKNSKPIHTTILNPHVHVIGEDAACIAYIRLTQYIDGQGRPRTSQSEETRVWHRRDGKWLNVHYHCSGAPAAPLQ
T2 sequence (P63085 whole entry): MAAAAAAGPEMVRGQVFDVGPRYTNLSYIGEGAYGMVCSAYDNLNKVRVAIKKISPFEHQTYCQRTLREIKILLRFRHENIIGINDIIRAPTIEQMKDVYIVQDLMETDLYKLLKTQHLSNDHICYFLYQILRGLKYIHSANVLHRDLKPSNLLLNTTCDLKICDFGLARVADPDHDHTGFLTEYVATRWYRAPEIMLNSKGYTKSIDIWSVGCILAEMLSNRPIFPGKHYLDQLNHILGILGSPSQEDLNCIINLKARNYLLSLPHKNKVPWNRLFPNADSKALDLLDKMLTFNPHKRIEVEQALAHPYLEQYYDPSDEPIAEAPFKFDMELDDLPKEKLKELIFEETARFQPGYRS
T1 sequence (Q9WV60 whole entry): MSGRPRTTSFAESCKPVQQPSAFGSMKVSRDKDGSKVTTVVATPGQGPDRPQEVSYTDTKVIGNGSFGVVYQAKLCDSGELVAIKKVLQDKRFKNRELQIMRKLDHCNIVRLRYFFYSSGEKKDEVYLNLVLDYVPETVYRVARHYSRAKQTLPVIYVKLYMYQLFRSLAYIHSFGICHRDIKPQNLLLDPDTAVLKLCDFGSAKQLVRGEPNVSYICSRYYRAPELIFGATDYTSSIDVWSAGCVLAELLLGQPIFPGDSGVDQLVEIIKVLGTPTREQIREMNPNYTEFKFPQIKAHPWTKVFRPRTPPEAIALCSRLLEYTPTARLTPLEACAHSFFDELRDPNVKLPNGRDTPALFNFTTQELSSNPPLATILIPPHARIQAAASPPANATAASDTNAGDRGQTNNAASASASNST

Row | Structure (SMILES) | mass spectrometry score, CaMK2g (CaMK2g) | number of identified peptides, CaMK2g (CaMK2g) | mass spectrometry score, GSK3B (GSK3B) | number of identified peptides, GSK3B (GSK3B) | mass spectrometry score, CaMKK2 (CaMKK2) | number of identified peptides, CaMKK2 (CaMKK2) | mass spectrometry score, FER (FER) | number of identified peptides, FER (FER) | mass spectrometry score, Erk2 (Erk2) | number of identified peptides, Erk2 (Erk2) | mass spectrometry score, FYN (FYN) | number of identified peptides, FYN (FYN)
1 | CC(C)[C@H](CO)Nc1nc(Nc2ccc(C(=O)O)c(Cl)c2)c2ncn(C(C)C)c2n1 [Purvalanol B, reference compound] |  |  | 1037 | 30 | 465 | 9 | 322 | 8 | 1437 | 115 | 268 | 6
2 | CNC1CC2OC(C)(C1OC)n1c3ccccc3c3c4c(c5c6ccccc6n2c5c31)C(=O)NC4 (centres unmarked) [CZC9280] |  | 25 |  | 59 | 282 | 10 | 818 | 21 |  |  | 314 | 6
3 | CCCCCCCCCCCCOS(=O)(=O)[O-].[Na+] [SDS] | 379 | 42 | 763 | 72 | 338 | 10 | 275 | 11 | 1023 | 102 | 407 | 17

More lines, now with the values ahead:

Row | mass spectrometry score, CaMK2g (CaMK2g) | number of identified peptides, CaMK2g (CaMK2g) | mass spectrometry score, GSK3B (GSK3B) | number of identified peptides, GSK3B (GSK3B) | mass spectrometry score, CaMKK2 (CaMKK2) | number of identified peptides, CaMKK2 (CaMKK2) | mass spectrometry score, FER (FER) | number of identified peptides, FER (FER) | mass spectrometry score, Erk2 (Erk2) | number of identified peptides, Erk2 (Erk2) | mass spectrometry score, FYN (FYN) | number of identified peptides, FYN (FYN) | Structure (SMILES)
4 | 527 | 27 | 881 | 26 | 522 | 12 | 100 | 2 | 810 | 46 |  |  | NCc1ccc(Nc2ncc(F)c(Nc3ccccc3)n2)cc1 [CZC00008004]
5 |  |  | 789 | 19 | 101 | 3 | 388 | 11 | 1179 | 235 | 279 | 6 | Cn1c(=O)c(-c2c(Cl)cccc2Cl)cc2cnc(Nc3ccc(CN)cc3)cc21 [CZC7324]
